# Patent US12410208B2, “(2-acetamidyl)thio-beta-D-galactopyranoside derivatives” (Idorsia Pharmaceuticals Ltd, priority 2020, dated 2025)
# Where two headings read alike, the source gives them in different places.
# Tests used:
# human Gal-1 (hGal-1) = human Gal-1 (hGal-1) (Homo sapiens, UniProt P09382); experiment: Competitive binding assay: biotinylated hGal-1 binding to microplate-adsorbed asialofetuin (ASF), spectrophotometric; conditions: hGal-1 binding to asialofetuin; Table 15; R and S epimers of selected Examples also listed; read-out: IC50 (Galectin-1 inhibition)
# Summary of the method: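 Biotinylated hGal-1 (300-1000 ng/mL) incubated with compound on asialofetuin-coated plates 3 hours at 4 °C, washed, then streptavidin-peroxidase (80 ng/mL) 1 hour at 4 °C. ABTS substrate read spectrophotometrically; IC50 reported as mean of several measurements.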
# [1] = molecular target: biotinylated human Gal-3 (hGal-3) (Homo sapiens, UniProt P17931); experiment: Competitive binding assay: biotinylated hGal-3 binding to microplate-adsorbed asialofetuin (ASF), spectrophotometric
# Summary of the method: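 Competitive binding of biotinylated hGal-3 to plate-adsorbed asialofetuin was measured with serially diluted compounds over 3 h at 4° C. Bound protein was detected with streptavidin-peroxidase and ABTS substrate by absorbance. IC50 values are means of several measurements.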
# [2] = Gal-3 inhibition, Table 5, read-out: IC50
# [3] = Gal-3 inhibition, Table 4, read-out: IC50
# [4] = Gal-3 inhibition, Table 2, read-out: IC50
# [5] = Gal-3 inhibition, Table 3, read-out: IC50
# biotinylated human Gal-3 (hGal-3), sequence (P17931 whole entry): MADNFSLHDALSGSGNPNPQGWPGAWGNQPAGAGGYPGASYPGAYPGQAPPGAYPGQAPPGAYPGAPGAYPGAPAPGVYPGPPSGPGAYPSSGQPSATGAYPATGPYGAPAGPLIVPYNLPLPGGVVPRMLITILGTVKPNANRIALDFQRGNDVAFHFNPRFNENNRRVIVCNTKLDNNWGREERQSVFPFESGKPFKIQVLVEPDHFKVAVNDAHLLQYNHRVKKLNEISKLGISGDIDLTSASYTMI
# human Gal-1 (hGal-1), sequence (P09382 whole entry): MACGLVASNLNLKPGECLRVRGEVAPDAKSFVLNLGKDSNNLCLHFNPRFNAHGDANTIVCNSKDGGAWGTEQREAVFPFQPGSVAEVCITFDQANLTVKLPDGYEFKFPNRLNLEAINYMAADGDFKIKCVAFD
IC50 (human Gal-1 (hGal-1)) [nM],"IC50 [1, 2] [nM]",Molecule,other results
230,100,"O=C([C@@H](S[C@@H]1O[C@H](CO)[C@H](O)[C@H](n2cc(-c3cc(F)c(F)c(F)c3)nn2)[C@H]1O)C1(O)CCC(F)(F)CC1)N1CC(F)(F)C1 [Example 2.44.227S., (S)-2-(4,4-Difluoro-1-hydroxycyclohexyl)-1-(3,3-difluoroazetidin-1-yl)-2-(((2S,3R,4S,5R,6R)-3,5-dihydroxy-6-(hydroxymethyl)-4-(4-(3,4,5-trifluorophenyl)-1H-1,2,3-triazol-1-yl)tetrahydro-2H-pyran-2-yl)thio)ethan-1-one]",
120,,"CCN(CC1CCOCC1)C(=O)C(S[C@@H]1O[C@H](CO)[C@H](O)[C@H](n2cc(-c3cc(F)c(F)c(F)c3)nn2)[C@H]1O)C1(O)CCOCC1 (stereo partly drawn) [Example 2.41.214., 2-(((2S,3R,4S,5R,6R)-3,5-Dihydroxy-6-(hydroxymethyl)-4-(4-(3,4,5-trifluorophenyl)-1H-1,2,3-triazol-1-yl)tetrahydro-2H-pyran-2-yl)thio)-N-ethyl-2-(4-hydroxytetrahydro-2H-pyran-4-yl)-N-((tetrahydro-2H-pyran-4-yl)methyl)acetamide]","IC50 [1, 3]: 30 nM"
10900,,CN(C(=O)[C@H](S[C@@H]1O[C@H](CO)[C@H](O)[C@H](n2cc(-c3cc(F)c(F)c(F)c3)nn2)[C@H]1O)C1(O)CCOCC1)c1cccnc1 [Example 2.41.234R],"IC50 ([1]; Table 9, hGal-3, read-out: IC50 (Gal-3 inhibition)): 7800 nM"
950,,"CC1CCN1C(=O)C(S[C@@H]1O[C@H](CO)[C@H](O)[C@H](n2cc(-c3cc(F)c(F)c(F)c3)nn2)[C@H]1O)C1(O)CCOCC1 (stereo partly drawn) [Example 2.41.204., 2-(((2S,3R,4S,5R,6R)-3,5-Dihydroxy-6-(hydroxymethyl)-4-(4-(3,4,5-trifluorophenyl)-1H-1,2,3-triazol-1-yl)tetrahydro-2H-pyran-2-yl)thio)-2-(4-hydroxytetrahydro-2H-pyran-4-yl)-1-(2-methylazetidin-1-yl)ethan-1-one]","IC50 [1, 3]: 210 nM"
110,,"CC(C)CN(C)C(=O)[C@@H](S[C@@H]1O[C@H](CO)[C@H](O)[C@H](n2cc(-c3cc(F)c(F)c(F)c3)nn2)[C@H]1O)C1(O)CCOCC1 [Example 2.41.200S., (S)-2-(((2S,3R,4S,5R,6R)-3,5-Dihydroxy-6-(hydroxymethyl)-4-(4-(3,4,5-trifluorophenyl)-1H-1,2,3-triazol-1-yl)tetrahydro-2H-pyran-2-yl)thio)-2-(4-hydroxytetrahydro-2H-pyran-4-yl)-N-isobutyl-N-methylacetamide]","IC50 [1, 4]: 50 nM"
5940,,"O=C(C(S[C@@H]1O[C@H](CO)[C@H](O)[C@H](n2cc(-c3cc(F)c(F)c(F)c3)nn2)[C@H]1O)C(O)Cc1ccccc1)N1CCC1 (stereo partly drawn) [Example 2.64.206., 1-(Azetidin-1-yl)-2-(((2S,3R,4S,5R,6R)-3,5-dihydroxy-6-(hydroxymethyl)-4-(4-(3,4,5-trifluorophenyl)-1H-1,2,3-triazol-1-yl)tetrahydro-2H-pyran-2-yl)thio)-3-hydroxy-4-phenylbutan-1-one]","IC50 ([1]; Gal-3 inhibition, Table 7, read-out: IC50): 710 nM"
120,50,"CN(CC1(F)CCCC1)C(=O)C(S[C@@H]1O[C@H](CO)[C@H](O)[C@H](n2cc(-c3cc(F)c(F)c(F)c3)nn2)[C@H]1O)C1(O)CCC(F)(F)CC1 (mixture of isomers) [Example 2.44.223., 2-(4,4-Difluoro-1-hydroxycyclohexyl)-2-(((2S,3R,4S,5R,6R)-3,5-dihydroxy-6-(hydroxymethyl)-4-(4-(3,4,5-trifluorophenyl)-1H-1,2,3-triazol-1-yl)tetrahydro-2H-pyran-2-yl)thio)-N-((1-fluorocyclopentyl)methyl)-N-methylacetamide]",
420,90,"CCN(C)C(=O)C(S[C@@H]1O[C@H](CO)[C@H](O)[C@H](n2cc(-c3cc(F)c(F)c(F)c3)nn2)[C@H]1O)C1(O)CCOCC1 (stereo partly drawn) [Example 2.41.203., 2-(((2S,3R,4S,5R,6R)-3,5-Dihydroxy-6-(hydroxymethyl)-4-(4-(3,4,5-trifluorophenyl)-1H-1,2,3-triazol-1-yl)tetrahydro-2H-pyran-2-yl)thio)-N-ethyl-2-(4-hydroxytetrahydro-2H-pyran-4-yl)-N-methylacetamide]",
180,,"CCN(C)C(=O)C(S[C@@H]1O[C@H](CO)[C@H](O)[C@H](n2cc(-c3cc(C)cc(F)c3)nn2)[C@H]1O)C1(O)CCOCC1 (stereo partly drawn) [Example 20.41.203., N-ethyl-2-(((2S,3R,4S,5R,6R)-4-(4-(3-Fluoro-5-methylphenyl)-1H-1,2,3-triazol-1-yl)-3,5-dihydroxy-6-(hydroxymethyl)tetrahydro-2H-pyran-2-yl)thio)-2-(4-hydroxytetrahydro-2H-pyran-4-yl)-N-methylacetamide]","IC50 ([1]; Table 11, hGal-3, read-out: IC50 (Gal-3 inhibition)): 60 nM"

# Continued, molecule first:
Molecule,IC50 (human Gal-1 (hGal-1)) [nM],"IC50 [1, 2] [nM]",other results
"CN(CC(F)(F)F)C(=O)C(S[C@@H]1O[C@H](CO)[C@H](O)[C@H](n2cc(-c3cc(F)c(F)c(F)c3)nn2)[C@H]1O)C1(O)CCC1 (stereo partly drawn) [Example 2.34.219., 2-(((2S,3R,4S,5R,6R)-3,5-Dihydroxy-6-(hydroxymethyl)-4-(4-(3,4,5-trifluorophenyl)-1H-1,2,3-triazol-1-yl)tetrahydro-2H-pyran-2-yl)thio)-2-(1-hydroxycyclobutyl)-N-methyl-N-(2,2,2-trifluoroethyl)acetamide]",640,260,
"CN(CCN1CCOCC1)C(=O)C(S[C@@H]1O[C@H](CO)[C@H](O)[C@H](n2cc(-c3cc(F)c(F)c(F)c3)nn2)[C@H]1O)C(C)(C)O (stereo partly drawn) [Example 2.31.230., 2-(((2S,3R,4S,5R,6R)-3,5-Dihydroxy-6-(hydroxymethyl)-4-(4-(3,4,5-trifluorophenyl)-1H-1,2,3-triazol-1-yl)tetrahydro-2H-pyran-2-yl)thio)-3-hydroxy-N,3-dimethyl-N-(2-morpholinoethyl)butanamide]",1250,,"IC50 ([1]; Table 6, hGal-3, read-out: IC50 (Gal-3 inhibition)): 110 nM"
"CC(C)CN(C)C(=O)C(S[C@@H]1O[C@H](CO)[C@H](O)[C@H](n2cc(-c3cc(F)c(F)c(F)c3)nn2)[C@H]1O)C1(O)CCOCC1 (stereo partly drawn) [Example 2.41.200., 2-(((2S,3R,4S,5R,6R)-3,5-Dihydroxy-6-(hydroxymethyl)-4-(4-(3,4,5-trifluorophenyl)-1H-1,2,3-triazol-1-yl)tetrahydro-2H-pyran-2-yl)thio)-2-(4-hydroxytetrahydro-2H-pyran-4-yl)-N-isobutyl-N-methylacetamide]",260,,"IC50 [1, 4]: 60 nM"
"(R)-2-(((2S,3R,4S,5R,6R)-3,5-Dihydroxy-6-(hydroxymethyl)-4-(4-(3,4,5-trifluorophenyl)-1H-1,2,3-triazol-1-yl)tetrahydro-2H-pyran-2-yl)thio)-2-(1-hydroxycyclohexyl)-N-methyl-N-(pyridin-2-ylmethyl)acetamide [Example 2.39.224R.]",2820,1400,
"CC(C)(O)C(S[C@@H]1O[C@H](CO)[C@H](O)[C@H](n2cc(-c3cc(F)c(F)c(F)c3)nn2)[C@H]1O)C(=O)N1CCC1 (stereo partly drawn) [Example 2.31.206., 1-(Azetidin-1-yl)-2-(((2S,3R,4S,5R,6R)-3,5-dihydroxy-6-(hydroxymethyl)-4-(4-(3,4,5-trifluorophenyl)-1H-1,2,3-triazol-1-yl)tetrahydro-2H-pyran-2-yl)thio)-3-hydroxy-3-methylbutan-1-one]",1400,,"IC50 [1, 5]: 200 nM"
"CN(C)C(=O)C(S[C@@H]1O[C@H](CO)[C@H](O)[C@H](n2cc(-c3cc(F)c(F)c(F)c3)nn2)[C@H]1O)C(C)(C)O (stereo partly drawn) [Example 2.31.201., 2-(((2S,3R,4S,5R,6R)-3,5-Dihydroxy-6-(hydroxymethyl)-4-(4-(3,4,5-trifluorophenyl)-1H-1,2,3-triazol-1-yl)tetrahydro-2H-pyran-2-yl)thio)-3-hydroxy-N,N,3-trimethylbutanamide]",1920,,"IC50 [1, 5]: 270 nM"
"(2R,3R,4S,5R,6S)-2-(Acetoxymethyl)-6-(((R)-2-(ethyl(methyl)amino)-1-(3-hydroxy-1-(methoxycarbonyl)azetidin-3-yl)-2-oxoethyl)thio)-4-(4-(3,4,5-trifluorophenyl)-1H-1,2,3-triazol-1-yl)tetrahydro-2H-pyran-3,5-diyl diacetate [Example 2.58.203R.]",1180,,"IC50 ([1]; Table 8, hGal-3, read-out: IC50 (Gal-3 inhibition)): 450 nM"
"O=C([C@@H](S[C@@H]1O[C@H](CO)[C@H](O)[C@H](n2cc(-c3cc(F)c(F)c(F)c3)nn2)[C@H]1O)C1(O)CCC1)N1CCC1 [Example 2.34.206S., (S)-1-(Azetidin-1-yl)-2-(((2S,3R,4S,5R,6R)-3,5-dihydroxy-6-(hydroxymethyl)-4-(4-(3,4,5-trifluorophenyl)-1H-1,2,3-triazol-1-yl)tetrahydro-2H-pyran-2-yl)thio)-2-(1-hydroxycyclobutyl)ethan-1-one]",620,340,
"CN(CC(C)(C)F)C(=O)[C@H](S[C@@H]1O[C@H](CO)[C@H](O)[C@H](n2cc(-c3cc(F)c(F)c(F)c3)nn2)[C@H]1O)C1(O)CCCCC1 [Example 2.39.222R., (R)-2-(((2S,3R,4S,5R,6R)-3,5-Dihydroxy-6-(hydroxymethyl)-4-(4-(3,4,5-trifluorophenyl)-1H-1,2,3-triazol-1-yl)tetrahydro-2H-pyran-2-yl)thio)-N-(2-fluoro-2-methylpropyl)-2-(1-hydroxycyclohexyl)-N-methylacetamide]",38100,10200,
